Assay results taken from PubChem BioAssay (NCI).
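Values below derive from 48-hour exposures of cells grown in 96-well plates, with endpoints linearly interpolated between the two concentrations bracketing the appropriate inhibition level. GI50 is the concentration that inhibits growth by half. TGI denotes the concentration required for complete inhibition of growth.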

How the values were obtained:
Assay in all cases: DTP human tumour cell line panel, 48 h
[1] = test system: OVCAR-3 ovarian
[2] = test system: A549 NSCLC
[3] = test system: KM12 colon
[4] = test system: 786-0 renal
[5] = test system: IGROV1 ovarian
[6] = test system: HCT-15 colon
[7] = test system: NCI-H226 lung
[8] = test system: OVCAR-5 ovarian
[9] = test system: HT29 colon
[10] = test system: OVCAR-8 ovarian
[11] = test system: SNB-75 CNS
[12] = test system: MOLT-4 leukemia
[13] = test system: MCF7 breast
[14] = test system: ACHN renal
[15] = test system: NCI-H460 lung
[16] = test system: T-47D breast
[17] = test system: SNB-19 CNS
[18] = test system: LOX IMVI melanoma
[19] = test system: UO-31 renal
[20] = test system: RPMI-8226 leukemia
[21] = test system: UACC-257 melanoma
[22] = test system: CAKI-1 renal
[23] = test system: DU-145 prostate
[24] = test system: EKVX NSCLC
[25] = test system: K-562 leukemia
[26] = test system: SK-MEL-28 melanoma
[27] = test system: BT-549 breast
[28] = test system: TK-10 renal
[29] = test system: HCT-116 colon
[30] = test system: SK-OV-3 ovarian
[31] = test system: HL-60(TB) leukemia
[32] = test system: OVCAR-4 ovarian
[33] = test system: SK-MEL-5 melanoma
[34] = test system: SF-295 CNS
[35] = test system: U251 CNS
[36] = test system: UACC-62 melanoma
[37] = test system: SF-539 CNS
[38] = test system: SN12C renal
[39] = test system: HOP-62 NSCLC
[40] = test system: A498 renal
[41] = test system: RXF 393 renal
[42] = test system: MDA-MB-435
[43] = test system: M14 melanoma
[44] = test system: SK-MEL-2 melanoma
[45] = test system: NCI-H522 lung
[46] = test system: SW-620 colon
[47] = test system: NCI-H23 lung
[48] = test system: SF-268 CNS
[49] = test system: HS 578T breast
[50] = test system: SR leukemia
[51] = test system: HOP-92 NSCLC
[52] = test system: PC-3 prostate
[53] = test system: COLO 205 colon
[54] = test system: NCI/ADR-RES ovarian
[55] = test system: MALME-3M melanoma
[56] = test system: MDA-MB-231 breast
[57] = test system: CCRF-CEM leukemia
[58] = test system: HCC-2998 colon

## COc1ccc2c(c1OC)CO[C@@H]2[C@H]1c2c(c(Br)c3c(c2OC)OCO3)CCN1C
[1]
  GI50: 3910 nM
  TGI: 13.6 µM
[2]
  GI50: 7.53 µM
  TGI: > 100 µM
[3]
  GI50: 4.26 µM
  TGI: 23.8 µM
[4]
  GI50: 4.66 µM
  TGI: 19.3 µM
[5]
  GI50: 8.73 µM
  TGI: > 100 µM
[6]
  GI50: 2690 nM
  TGI: > 100 µM
[7]
  GI50: 5.16 µM
  TGI: 32.3 µM
[8]
  GI50: 18.6 µM
  TGI: > 100 µM
[9]
  GI50: 30.7 µM
  TGI: > 100 µM
[10]
  GI50: 7.3 µM
  TGI: > 100 µM
[11]
  GI50: 40.2 µM
  TGI: > 100 µM
[12]
  GI50: 3550 nM
  TGI: > 100 µM
[13]
  GI50: 3190 nM
  TGI: 29.3 µM
[14]
  GI50: 6.63 µM
  TGI: > 100 µM
[15]
  GI50: 3030 nM
  TGI: 14 µM
[16]
  GI50: 66.8 µM
  TGI: > 100 µM
[17]
  GI50: 39.2 µM
  TGI: > 100 µM
[18]
  GI50: 2.67 µM
  TGI: 12.2 µM
[19]
  GI50: 10.6 µM
  TGI: > 100 µM
[20]
  GI50: 4.24 µM
  TGI: > 100 µM
[21]
  GI50: 4.28 µM
  TGI: 19.9 µM
[22]
  GI50: 4.17 µM
  TGI: 22.1 µM
[23]
  GI50: 6.96 µM
  TGI: > 100 µM
[24]
  GI50: 3.95 µM
  TGI: 34.8 µM
[25]
  GI50: 2370 nM
  TGI: > 100 µM
[26]
  GI50: 36.6 µM
  TGI: > 100 µM
[27]
  GI50: 6.8 µM
  TGI: 35.9 µM
[28]
  GI50: 4.42 µM
  TGI: 21.6 µM
[29]
  GI50: 5.09 µM
  TGI: 22.6 µM
[30]
  GI50: 61.2 µM
  TGI: > 100 µM
[31]
  GI50: 1890 nM
  TGI: > 100 µM
[32]
  GI50: > 100 µM
  TGI: > 100 µM
[33]
  GI50: 2420 nM
  TGI: 11.8 µM
[34]
  GI50: 2840 nM
  TGI: 7.65 µM
[35]
  GI50: 4.59 µM
  TGI: 70.6 µM
[36]
  GI50: 2070 nM
  TGI: 9.2 µM
[37]
  GI50: 2830 nM
  TGI: 9.3 µM
[38]
  GI50: 3.98 µM
  TGI: 16.8 µM
[39]
  GI50: 5.88 µM
  TGI: 32.7 µM
[40]
  GI50: 2270 nM
  TGI: 4.43 µM
[41]
  GI50: 4.9 µM
  TGI: 29.8 µM
[42]
  GI50: 3070 nM
  TGI: 8.69 µM
[43]
  GI50: 3470 nM
  TGI: 9.74 µM
[44]
  GI50: 5.77 µM
  TGI: 43.7 µM
[45]
  GI50: 3410 nM
  TGI: 23.1 µM
[46]
  GI50: 3.57 µM
  TGI: > 100 µM
[47]
  GI50: 4.1 µM
  TGI: 22 µM
[48]
  GI50: 5.16 µM
  TGI: 25.5 µM
[49]
  GI50: 3080 nM
  TGI: 12.7 µM
[50]
  GI50: 1010 nM
  TGI: > 100 µM
[51]
  GI50: 6.74 µM
  TGI: 57.6 µM
[52]
  GI50: 8.74 µM
  TGI: > 100 µM
[53]
  GI50: 31.4 µM
  TGI: 85.4 µM
[54]
  GI50: 4.45 µM
  TGI: > 100 µM

## Nc1c(C(=O)Nc2ccccn2)sc2nc3c(cc12)CCCCC3
[1]
  GI50: 1630 nM
  TGI: > 50 µM
[2]
  GI50: 2.47 µM
  TGI: > 50 µM
[3]
  GI50: 1.95 µM
  TGI: > 50 µM
[4]
  GI50: 1.78 µM
  TGI: > 50 µM
[5]
  GI50: 3.58 µM
  TGI: > 50 µM
[6]
  GI50: 1380 nM
  TGI: > 50 µM
[7]
  GI50: 2.6 µM
  TGI: > 50 µM
[8]
  GI50: 3.8 µM
  TGI: > 50 µM
[9]
  GI50: 1.75 µM
  TGI: > 50 µM
[10]
  GI50: 2.87 µM
  TGI: > 50 µM
[11]
  GI50: 2.35 µM
  TGI: > 50 µM
[55]
  GI50: 34.3 µM
  TGI: > 50 µM
[12]
  GI50: 2320 nM
  TGI: > 50 µM
[13]
  GI50: 851 nM
  TGI: > 50 µM
[14]
  GI50: 2.71 µM
  TGI: > 50 µM
[15]
  GI50: 1830 nM
  TGI: > 50 µM
[16]
  GI50: 1.79 µM
  TGI: > 50 µM
[17]
  GI50: 2.77 µM
  TGI: > 50 µM
[18]
  GI50: 9.56 µM
  TGI: > 50 µM
[56]
  GI50: 3.83 µM
  TGI: > 50 µM
[20]
  GI50: 1.98 µM
  TGI: > 50 µM
[21]
  GI50: > 50 µM
  TGI: > 50 µM
[22]
  GI50: 3.51 µM
  TGI: > 50 µM
[23]
  GI50: 1.88 µM
  TGI: > 50 µM
[57]
  GI50: 1910 nM
  TGI: > 50 µM
[25]
  GI50: 987 nM
  TGI: > 50 µM
[26]
  GI50: 6.23 µM
  TGI: > 50 µM
[27]
  GI50: 2.36 µM
  TGI: > 50 µM
[28]
  GI50: 4.98 µM
  TGI: > 50 µM
[29]
  GI50: 1.77 µM
  TGI: > 50 µM
[30]
  GI50: 2.14 µM
  TGI: > 50 µM
[31]
  GI50: 1340 nM
  TGI: > 50 µM
[32]
  GI50: 4.09 µM
  TGI: > 50 µM
[33]
  GI50: 2130 nM
  TGI: > 50 µM
[34]
  GI50: 1560 nM
  TGI: > 50 µM
[35]
  GI50: 2.64 µM
  TGI: > 50 µM
[36]
  GI50: 3060 nM
  TGI: > 50 µM
[37]
  GI50: 1390 nM
  TGI: > 50 µM
[38]
  GI50: 3.59 µM
  TGI: > 50 µM
[39]
  GI50: 3.46 µM
  TGI: > 50 µM
[41]
  GI50: 1.4 µM
  TGI: 4.86 µM
[42]
  GI50: 250 nM
  TGI: > 50 µM
[43]
  GI50: 1260 nM
  TGI: > 50 µM
[44]
  GI50: 2.08 µM
  TGI: > 50 µM
[45]
  GI50: 2110 nM
  TGI: > 50 µM
[46]
  GI50: 3.19 µM
  TGI: > 50 µM
[58]
  GI50: 2370 nM
  TGI: > 50 µM
[47]
  GI50: 2.19 µM
  TGI: > 50 µM
[48]
  GI50: 4.89 µM
  TGI: > 50 µM
[49]
  GI50: 2740 nM
  TGI: > 50 µM
[50]
  GI50: 521 nM
  TGI: > 50 µM
[51]
  GI50: 27.9 µM
  TGI: > 50 µM
[52]
  GI50: 2.59 µM
  TGI: > 50 µM
[53]
  GI50: 1.42 µM
  TGI: > 50 µM
